Data on 5 compounds can be found in patent US7452865B2, “Antagonistic analogs of GH RH (2003)” (The Administrare's of the Tulane Educational Fund, priority 2004, dated 2008).

Marks after values point to notes of the source that are not given here. Square brackets hold non-standard residues; d marks the D form. Peptide text beside a SMILES is read from it. * marks the point of attachment. Phe(4-Cl) = N[C@@H](Cc1ccc(Cl)cc1)C(=O)O; Dip = N[C@H](C(=O)O)C(c1ccccc1)c1ccccc1; hArg = N=C(N)NCCCC[C@H](N)C(=O)O; Cit = NC(=O)NCCC[C@H](N)C(=O)O; Nle = CCCC[C@H](N)C(=O)O; Abu = CC[C@H](N)C(=O)O; PhAc = O=C(Cc1ccccc1)*

Experiment [1] relates to PC-3 human prostate cancer xenografts. The experiment in a line: PC-3 xenografts in nude mice, Experiment 3: tumor growth. Format: in vivo. The following applies: for antitumor effect on PC-3 tumors (in words): 10 μg/day; for Tumor volume (mm^3) Final / Tumor volume doubling time / Tumor weight / Tumor volume Final (% inhibition) / Tumor weight (% inhibition): 10 μg/day s.c., 28 days; for Tumor volume Final (% inhibition) / Tumor weight (% inhibition): vs control; for Tumor volume (mm^3) Initial: at start of treatment. As for the experimental part: Male nude mice were implanted s.c. with 3 mm^3 pieces of PC-3 human hormone-independent prostate cancer tissue on both flanks. When tumors reached a volume of approximately 65 mm^3, the mice were divided into 7 experimental groups with 8 to 9 animals in each group and received single daily injections for 28 days as follows: 1. Control (vehicle solution); 2. JV-1-38 (10 μg/day s.c.); 3. Peptide 35 (10 μg/day s.c.); 4. Peptide 36 (10 μg/day s.c.); 5. Peptide 37 (10 μd/day s.c.); 6. Peptide 39 (10 μg/day s.c.); 7. Peptide 41 (10 μg/day s.c.). Tumor volumes were measured twice a week. The experiment was ended on day 28 by sacrificing the mice under Isofurane anesthesia. Resulting tumors were cleaned, weighed, and snapfrozen until further analyses. Trunk blood was collected from the abdominal aorta and serum was separated for RIA measurement of IGF-I. Statistical analyses of the measurement results were done by ANOVA followed by Fisher test; data are presented as the means±S.E.

For experiment [2], the system named is hGH-RH(1-29)NH2 induced GH release. The experiment in a line: Inhibition of GH release in superfused rat pituitary system. Format: cell-based. The settings on record: for GH response (% of control) 0 min / GH response (% of control) 30 min / GH response (% of control) 60 min / GH response (% of control) 90 min / GH response (% of control) 120 min: antagonist 30 nM; for GH response (% of control) 0 min: 1 nM hGH-RH(1-29)NH2 at 0 min; for GH response (% of control) 30 min: 1 nM hGH-RH(1-29)NH2 at 30 min; for GH response (% of control) 60 min: 1 nM hGH-RH(1-29)NH2 at 60 min; for GH response (% of control) 90 min: 1 nM hGH-RH(1-29)NH2 at 90 min; for GH response (% of control) 120 min: 1 nM hGH-RH(1-29)NH2 at 120 min. The essentials: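 Dispersed rat pituitary cells in superfusion were preincubated 9 min with analog at various concentrations, then stimulated with 1 nM hGH-RH(1-29)NH2 for 3 min, repeated at 30, 60, 90, 120 min to gauge duration. GH measured by double-antibody RIA; net integrated responses expressed as percent of the initial 1 nM GH-RH response.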

Experiment [3] relates to GH-RH receptor isoforms on membrane fractions of human PC-3 prostate tumors. Format: binding. The following applies: general statement. The text has this: Ligand competition assays with ^125I-labeled GH-RH antagonist JV-1-42 were used to determine the binding affinities of GH-RH analogs to the GH-RH receptor isoforms on membrane fractions of human PC-3 prostate tumors. The methods used have been described in detail (Halmos G, Schally A V, Varga J L, Plonowski A, Rekasi Z, Czompoly T, Proc Natl Acad Sci USA 97: 10555-10560, 2000; Halmos G, Schally A V, Czompoly T, Krupa M, Varga J L, Rekasi Z, J Clin Endocrinol Metab 87: 4707-4714, 2002), hereby incorporated by reference. Briefly, radioiodinated derivatives of JV-142 are prepared by the chloramine-T method. PC-3 tumors, grown as xenografts in nude mice, are used to prepare crude membranes. PC-3 membrane homogenates are incubated with [^125I]JV-142 and increasing concentrations (10^−12 to 10^−6 M) of nonradioactive antagonist peptides as competitors. The pellet is separated by centrifugation and counted for radioactivity in a gamma-counter. The final binding affinities are estimated by K1 (dissociation constant of the inhibitor-receptor complex) and are determined by the Ligand PC and McPherson computer programs of Munson and Rodbard (P. J. Munson and D. Rodbard, Anal. Biochem. […]: 220-239, 1980). Relative affinities (R.A.) compared to reference peptides such as JV-1-36 or JV-1-38, are calculated as the ratio of K1 of the reference peptide to the K, of the tested GH-RH antagonist.

With `CCCC[C@H](NC(=O)[C@@H](NC(=O)[C@H](CC(=O)O)NC(=O)[C@H](CCC(N)=O)NC(=O)[C@H](CC(C)C)NC(=O)[C@H](CC(C)C)NC(=O)[C@H](CCCCN)NC(=O)[C@H](CCCNC(=N)N)NC(=O)[C@H](C)NC(=O)[C@H](CO)NC(=O)[C@H](CC(C)C)NC(=O)[C@H](CCC(N)=O)NC(=O)[C@H](CC)NC(=O)[C@H](CC(C)C)NC(=O)[C@@H](NC(=O)[C@H](CCCCN)NC(=O)[C@H](CCCNC(=N)N)NC(=O)[C@@H](NC(=O)[C@H](CCCCNC(=N)N)NC(=O)[C@H](CC(N)=O)NC(=O)[C@@H](NC(=O)[C@H](Cc1ccc(Cl)cc1)NC(=O)[C@@H](NC(=O)[C@H](C)NC(=O)[C@H](CC(=O)O)NC(=O)[C@@H](CCCNC(=N)N)NC(=O)[C@H](Cc1ccc(O)cc1)NC(=O)Cc1ccccc1)[C@@H](C)CC)[C@@H](C)O)C(c1ccccc1)c1ccccc1)C(C)C)[C@@H](C)CC)C(=O)N[C@H](CCCNC(=N)N)C(=O)N[C@@H](CCCCNC(=N)N)C(N)=O` [Peptide 36, [PhAc-Tyr^1, D-Arg^2, Phe(pCl)^6, Har^9, Dip^10, Abu^15, Nle^27, D-Arg^28, Har^29]hGH-RH(1-29)NH2] (PhAc-Y[dR]DAI[Phe(4-Cl)]TN[hArg][Dip]RKVL[Abu]QLSARKLLQDI[Nle][dR][hArg]-NH2), in experiment [1], the “antitumor effect on PC-3 tumors (in words)” value (from here on “antitumor effect”) is “more potent antitumor effect than reference peptide JV-1-38”, the “Tumor volume (mm^3) Final” value is on record as 214 ± 72.6** mm^3, the “Tumor volume doubling time” value was 18.7 ± 3.83 days and the “Tumor weight” value came out at 361 ± 89.6 mg. In addition, in experiment [1], the “Tumor volume Final (% inhibition)” value is recorded as “(76%)”, the “Tumor weight (% inhibition)” value is reported as “(48%)” and the “Tumor volume (mm^3) Initial” value is recorded as 68.0 ± 11.7 mm^3. In experiment [2], the “GH response (% of control) 0 min” value is listed as 104 % of control, the “GH response (% of control) 30 min” value is 90 % of control, the “GH response (% of control) 60 min” value is 112 % of control and the “GH response (% of control) 90 min” value is on record as 97 % of control. The “GH response (% of control) 120 min” value in experiment [2] is listed as 120 % of control. Further, in experiment [3], the “binding affinities to the tumoral receptors for GH-RH (in words)” value (“binding affinities” for short) is reported as “extremely high binding affinities”.

Regarding “[PhAc-Tyr^1, D-Arg^2, Phe(pCl)^6, Har^9, 2-Nal^10, Abu^15, Nle^27, D-Arg^28, Har^29]hGH-RH(1-29)NH2 [Peptide 35]”, in experiment [1], the “antitumor effect” value is “more potent antitumor effect than reference peptide JV-1-38”, the “Tumor volume (mm^3) Final” value is 261 ± 52.9** mm^3, the “Tumor volume doubling time” value was 17.0 ± 2.32 days and the “Tumor weight” value was 286 ± 58.9 mg. In addition, in experiment [1], the “Tumor volume Final (% inhibition)” value is listed as “(68%)”, the “Tumor weight (% inhibition)” value is “(59%)” and the “Tumor volume (mm^3) Initial” value was 65.7 ± 11.3 mm^3. In experiment [2], the “GH response (% of control) 0 min” value is 91 % of control, the “GH response (% of control) 30 min” value is given as 57 % of control, the “GH response (% of control) 60 min” value is recorded as 80 % of control and the “GH response (% of control) 90 min” value is reported as 66 % of control. The “GH response (% of control) 120 min” value in experiment [2] is recorded as 72 % of control. The “binding affinities” value in experiment [3] is listed as “extremely high binding affinities”.

In the case of “[PhAc-Tyr^1, D-Arg^2, Phe(pCl)^6, Har^9, Phe(pNO2)^10, Abu^15, Nle^27, D-Arg^28, Har^29]hGH-RH(1-29)NH2 [Peptide 39]”, in experiment [1], the “antitumor effect” value is “more potent antitumor effect than reference peptide JV-1-38”, the “Tumor volume (mm^3) Final” value was 271 ± 109** mm^3, the “Tumor volume doubling time” value is on record as 19.6 ± 2.10 days and the “Tumor weight” value is listed as 247 ± 55.4 mg. For the same compound, in experiment [1], the “Tumor volume Final (% inhibition)” value is recorded as “(66%)”, the “Tumor weight (% inhibition)” value is reported as “(65%)” and the “Tumor volume (mm^3) Initial” value amounted to 66.7 ± 11.2 mm^3. For the same compound, in experiment [2], the “GH response (% of control) 0 min” value is listed as 63 % of control, the “GH response (% of control) 30 min” value is reported as 54 % of control, the “GH response (% of control) 60 min” value was 36 % of control and the “GH response (% of control) 90 min” value was 37 % of control. Further, in experiment [2], the “GH response (% of control) 120 min” value is reported as 36 % of control. In addition, the “binding affinities” value in experiment [3] is “extremely high binding affinities”.

Consider `CCCC[C@H](NC(=O)[C@@H](NC(=O)[C@H](CC(=O)O)NC(=O)[C@H](CCC(N)=O)NC(=O)[C@H](CC(C)C)NC(=O)[C@H](CC(C)C)NC(=O)[C@H](CCCCN)NC(=O)[C@H](CCCNC(=N)N)NC(=O)[C@H](C)NC(=O)[C@H](CO)NC(=O)[C@H](CC(C)C)NC(=O)[C@H](CCC(N)=O)NC(=O)[C@H](CC)NC(=O)[C@H](CC(C)C)NC(=O)[C@@H](NC(=O)[C@H](CCCCN)NC(=O)[C@H](CCCNC(=N)N)NC(=O)[C@H](Cc1ccc(O)cc1)NC(=O)[C@H](CCCNC(N)=O)NC(=O)[C@H](CCCNC(N)=O)NC(=O)[C@@H](NC(=O)[C@H](Cc1ccc(Cl)cc1)NC(=O)[C@@H](NC(=O)[C@H](C)NC(=O)[C@H](CC(=O)O)NC(=O)[C@@H](CCCNC(=N)N)NC(=O)[C@H](Cc1ccc(O)cc1)NC(=O)Cc1ccccc1)[C@@H](C)CC)[C@@H](C)O)C(C)C)[C@@H](C)CC)C(=O)N[C@H](CCCNC(=N)N)C(=O)N[C@@H](CCCCNC(=N)N)C(N)=O` [Peptide 22, [PhAc-Tyr^1, D-Arg^2, Phe(pCl)^6, Cit^8, Cit^9, Abu^15, Nle^27, D-Arg^28, Har^29]hGH-RH(1-29)NH2] (PhAc-Y[dR]DAI[Phe(4-Cl)]T[Cit][Cit]YRKVL[Abu]QLSARKLLQDI[Nle][dR][hArg]-NH2), for which, in experiment [2], the “GH response (% of control) 0 min” value was 22 % of control, the “GH response (% of control) 30 min” value is 26 % of control, the “GH response (% of control) 60 min” value was 27 % of control and the “GH response (% of control) 90 min” value is 45 % of control. For the same compound, the “binding affinities” value in experiment [3] is “extremely high binding affinities”.

Take `CCCC[C@H](NC(=O)[C@@H](NC(=O)[C@H](CC(=O)O)NC(=O)[C@H](CCC(N)=O)NC(=O)[C@H](CC(C)C)NC(=O)[C@H](CC(C)C)NC(=O)[C@H](CCCCN)NC(=O)[C@H](CCCNC(=N)N)NC(=O)[C@H](C)NC(=O)[C@H](CO)NC(=O)[C@H](CC(C)C)NC(=O)[C@H](CCC(N)=O)NC(=O)[C@H](CC)NC(=O)[C@H](CC(C)C)NC(=O)[C@@H](NC(=O)[C@H](CCCCN)NC(=O)[C@H](CCCNC(=N)N)NC(=O)[C@H](Cc1ccc(OC)cc1)NC(=O)[C@H](Cc1c[nH]cn1)NC(=O)[C@H](CC(N)=O)NC(=O)[C@@H](NC(=O)[C@H](Cc1ccc(Cl)cc1)NC(=O)[C@@H](NC(=O)[C@H](C)NC(=O)[C@H](CC(=O)O)NC(=O)[C@@H](CCCNC(=N)N)NC(=O)[C@H](Cc1ccc(O)cc1)NC(=O)Cc1ccccc1)[C@@H](C)CC)[C@@H](C)O)C(C)C)[C@@H](C)CC)C(=O)N[C@H](CCCNC(=N)N)C(=O)N[C@@H](CCCCNC(=N)N)C(N)=O` [Peptide 69, [PhAc-Tyr^1, D-Arg^2, Phe(pCl)^6, His^9, Tyr(Me)^10, Abu^15, Nle^27, D-Arg^28, Har^29]hGH-RH(1-29)NH2] (PhAc-Y[dR]DAI[Phe(4-Cl)]TNHY(Me)RKVL[Abu]QLSARKLLQDI[Nle][dR][hArg]-NH2): in experiment [2], the “GH response (% of control) 0 min” value is reported as 9 % of control, the “GH response (% of control) 30 min” value is 12 % of control, the “GH response (% of control) 60 min” value was 18 % of control and the “GH response (% of control) 90 min” value is given as 18 % of control. For the same compound, in experiment [2], the “GH response (% of control) 120 min” value was 25 % of control. Also, in experiment [2] (general statement, in vitro and in vivo), the “endocrine antagonistic potency: inhibition of the GH release stimulated by hGH-RH(1-29)NH2 (in words)” value is reported as “high endocrine antagonistic potencies”. Besides, the “binding affinities” value in experiment [3] is given as “extremely high binding affinities”.
